Values joined by “and” are separate entries in the source; they are usually repeats but may differ in a detail not shown here. Equal values may be shown once. Read-outs that look alike come from different tables or passages of the source. Non-standard residues stand in square brackets, D forms with d. Residues, ends and D or L forms follow the SMILES beside them. *: point of attachment. NH(3,5-(CF3)2-benzyl) = FC(F)(F)c1cc(CN*)cc(C(F)(F)F)c1; NMeW = CN[C@@H](Cc1c[nH]c2ccccc12)C(=O)O; Dmt = Cc1cc(O)cc(C)c1C[C@H](N)C(=O)O; NMeF = CN[C@@H](Cc1ccccc1)C(=O)O
Assays:
MOR [1] = assay: Radioligand binding assay at μ opioid receptor; details: for Log[IC50±] (μ): log IC50 ± error; for Ki^μ/Ki^δ: ratio of binding affinities MOR/DOR
Description: (§1) Binding affinities of these ligands were measured on radioligand binding assays. […] ([43]).

DOR [2] = target: T1, DOR (Mus musculus, UniProt P32300); assay: Mouse isolated vas deferens (MVD) functional assay; assay type: cell-based
T1 construct: Male ICR mice under CO2 anesthesia were sacrificed by cervical dislocation and the vasa differentia removed; from tissue; host or cells: mouse vas deferens (ICR mice)
T1 sequence (P32300 whole entry): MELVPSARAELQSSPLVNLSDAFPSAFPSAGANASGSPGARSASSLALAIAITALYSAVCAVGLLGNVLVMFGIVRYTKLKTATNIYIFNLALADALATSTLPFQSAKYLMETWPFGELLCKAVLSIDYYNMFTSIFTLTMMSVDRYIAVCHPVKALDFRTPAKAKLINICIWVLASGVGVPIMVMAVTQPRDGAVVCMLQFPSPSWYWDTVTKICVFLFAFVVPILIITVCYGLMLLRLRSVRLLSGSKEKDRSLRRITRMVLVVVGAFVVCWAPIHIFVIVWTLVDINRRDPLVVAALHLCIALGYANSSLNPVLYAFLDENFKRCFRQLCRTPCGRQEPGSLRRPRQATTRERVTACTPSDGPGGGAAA

NK1R = target: T2, NK1R (Cavia porcellus, UniProt P30547); assay: GPI/LMMP functional assay at NK1R (agonist and antagonist testing); assay type: cell-based, guinea pig; details: for GPI/LMMP (NK1R) Agonist: agonist activity at the concentration in the cell
T2 construct: The longitudinal muscle with myenteric plexus (LMMP) was carefully separated from the circular muscle; from tissue; host or cells: guinea pig ileum longitudinal muscle with myenteric plexus
T2 sequence (P30547 whole entry): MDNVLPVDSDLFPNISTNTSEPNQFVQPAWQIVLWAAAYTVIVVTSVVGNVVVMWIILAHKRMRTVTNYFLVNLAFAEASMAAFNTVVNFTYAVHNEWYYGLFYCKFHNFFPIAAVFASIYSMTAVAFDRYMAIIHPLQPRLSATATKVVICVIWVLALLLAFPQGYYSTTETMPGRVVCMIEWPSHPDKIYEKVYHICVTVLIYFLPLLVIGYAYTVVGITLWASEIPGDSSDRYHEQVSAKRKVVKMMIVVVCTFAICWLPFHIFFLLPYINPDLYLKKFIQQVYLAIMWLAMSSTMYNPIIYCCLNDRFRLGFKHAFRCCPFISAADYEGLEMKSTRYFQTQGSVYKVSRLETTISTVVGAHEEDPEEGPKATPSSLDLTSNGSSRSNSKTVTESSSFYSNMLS

hNK1 = target: T3, hNK1 (Homo sapiens, UniProt P25103); assay: hNK1/CHO cell membrane radioligand binding assay ([3H]SP); details: for Ki: hNK1/CHO membranes, [3H]SP; for Ki^hNK1/Ki^rNK1: ratio human/rat NK1
T3 construct: expressed in transfected cells; host or cells: CHO
T3 sequence (P25103 whole entry): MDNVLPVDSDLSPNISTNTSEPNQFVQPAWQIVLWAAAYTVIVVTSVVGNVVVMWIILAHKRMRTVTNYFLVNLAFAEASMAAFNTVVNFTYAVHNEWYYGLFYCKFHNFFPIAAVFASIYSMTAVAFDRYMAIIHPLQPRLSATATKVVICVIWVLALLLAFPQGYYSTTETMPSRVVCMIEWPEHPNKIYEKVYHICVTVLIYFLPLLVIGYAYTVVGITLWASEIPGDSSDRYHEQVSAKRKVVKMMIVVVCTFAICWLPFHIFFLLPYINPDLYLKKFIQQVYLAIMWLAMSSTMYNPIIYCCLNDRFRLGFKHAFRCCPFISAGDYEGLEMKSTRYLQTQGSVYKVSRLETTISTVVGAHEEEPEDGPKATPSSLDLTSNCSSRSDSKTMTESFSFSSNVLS

DOR [3] = target: DOR (Homo sapiens, UniProt P41143); assay: Radioligand binding assay at δ opioid receptor; details: for Ki: Ki^δ (nM)
DOR (Homo sapiens, UniProt P41143), sequence (P41143 whole entry): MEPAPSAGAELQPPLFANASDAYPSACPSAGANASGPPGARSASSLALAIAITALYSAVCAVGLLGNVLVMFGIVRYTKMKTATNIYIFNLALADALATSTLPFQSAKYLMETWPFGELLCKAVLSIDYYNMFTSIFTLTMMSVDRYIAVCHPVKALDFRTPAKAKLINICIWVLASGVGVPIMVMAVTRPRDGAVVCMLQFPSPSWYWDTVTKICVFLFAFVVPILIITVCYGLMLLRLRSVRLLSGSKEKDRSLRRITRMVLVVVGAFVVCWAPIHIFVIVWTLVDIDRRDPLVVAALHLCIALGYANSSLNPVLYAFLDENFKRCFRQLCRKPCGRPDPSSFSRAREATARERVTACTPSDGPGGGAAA
Description: as §1

MOR [4] = assay: Guinea pig isolated ileum (GPI) functional assay; assay type: cell-based
rNK1 = rNK1 (Rattus norvegicus, UniProt P14600); assay: Radioligand binding assay at rat NK1 receptor
rNK1, sequence (P14600 whole entry): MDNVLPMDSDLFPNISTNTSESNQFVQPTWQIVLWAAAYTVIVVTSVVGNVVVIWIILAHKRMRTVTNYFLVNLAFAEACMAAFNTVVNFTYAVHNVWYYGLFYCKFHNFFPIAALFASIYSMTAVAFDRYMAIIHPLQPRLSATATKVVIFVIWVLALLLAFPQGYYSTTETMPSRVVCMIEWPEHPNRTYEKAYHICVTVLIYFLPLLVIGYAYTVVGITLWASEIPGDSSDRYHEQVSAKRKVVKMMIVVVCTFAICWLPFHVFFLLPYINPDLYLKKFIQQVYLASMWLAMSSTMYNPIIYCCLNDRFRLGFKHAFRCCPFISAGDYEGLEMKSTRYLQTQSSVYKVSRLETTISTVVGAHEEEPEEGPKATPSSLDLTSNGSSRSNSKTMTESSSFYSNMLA
Description: as §1

[5] = agonist activity, electrically stimulated tissue, read-out: GPI (MOR) IC50
[6] = MVD (DOR) IC50 (nM), agonist activity, electrically stimulated tissue
[7] = GPI/LMMP (NK1R) Ke (nM) ± S.E.M., antagonist activity

Row | Structure (SMILES) | Ki (MOR [1]) | Log[IC50±] (μ) (MOR [1]) | Ki (hNK1; Ki^hNK1 (nM)) | Ki^hNK1/Ki^rNK1 (hNK1) | IC50 (DOR [3]) | Ki (rNK1; Ki^rNK1 (nM)) | Ki^μ/Ki^δ (MOR [1]) | also measured
1 | CC(C)C[C@H](NC(=O)[C@@H]1CCCN1C(=O)c1ccc(CNC(=O)[C@H](Cc2ccccc2)N(C)C(=O)CNC(=O)[C@@H](C)NC(=O)[C@@H](N)Cc2ccc(O)cc2)cc1)C(=O)N[C@@H](Cc1c[nH]c2ccccc12)C(=O)NCc1cc(C(F)(F)F)cc(C(F)(F)F)c1 [AKG125, H-Tyr-D-Ala-Gly-NMePhe-4-Amb-Pro-Leu-Trp-NH-Bn(3′,5′-(CF3)2)] | 5 nM | −7.92 ± 0.11 | 2.3 nM | 1/13 | 263 nM | 30 nM | – | binding selectivity for MOR over DOR (MOR [1]): 23 times; IC50 (DOR [2]): 46.3 ± 13.4 nM; higher agonist activity at DOR compared to MOR (functional assays) (DOR [2]): 10 times; Kb (NK1R): 8.36 ± 4.12 nM; GPI/LMMP (NK1R) Agonist (NK1R): None at 100 nM; GPI/MVD IC50 ratio (MOR [4]): 10/1; IC50 (MOR [4]; [5]): 470 nM and 471 nM
2 | Cc1cc(O)cc(C)c1C[C@H](N)C(=O)N[C@H](C)C(=O)N(C)CC(=O)N(C)[C@@H](Cc1ccccc1)C(=O)N1CCC[C@H]1C(=O)N[C@@H](CC(C)C)C(=O)N[C@@H](Cc1c[nH]c2ccccc12)C(=O)NCc1cc(C(F)(F)F)cc(C(F)(F)F)c1 [AKG182, H-Dmt-D-Ala-NMeGly-NMePhe-Pro-Leu-Trp-NH-Bn(3′,5′-(CF3)2)] | – | – | – | 1/22 | – | 110 ± 18.3 nM | – | –
3 | Cc1cc(O)cc(C)c1C[C@H](N)C(=O)N[C@H](C)C(=O)NCC(=O)N(C)[C@@H](Cc1ccccc1)C(=O)N[C@@H](CCC(N)=O)C(=O)NCC(=O)N1CCC[C@H]1C(=O)N[C@@H](CC(C)C)C(=O)N[C@@H](Cc1c[nH]c2ccccc12)C(=O)NCc1cc(C(F)(F)F)cc(C(F)(F)F)c1 [AKG-SK-146] (H-[Dmt][dA]G[NMeF]QGPLW-{NH(3,5-(CF3)2-benzyl)}; N-terminus assumed) | 0.6 nM | −8.94 ± 0.17 | 6.37 ± 1.54 nM | 1/15 | 1.41 nM | 78.6 ± 9.8 nM | 1/1 | Ki (DOR [3]): 0.6 nM
4 | CSCC[C@H](NC(=O)[C@H](Cc1ccccc1)NC(=O)CNC(=O)[C@@H](C)NC(=O)[C@@H](N)Cc1ccc(O)cc1)C(=O)N1CCC[C@H]1C(=O)N[C@@H](CC(C)C)C(=O)N[C@@H](Cc1c[nH]c2ccccc12)C(=O)NCc1cc(C(F)(F)F)cc(C(F)(F)F)c1 [TY027, H-Tyr-D-Ala-Gly-Phe-Met-Pro-Leu-Trp-NH-Bn(3′,5′-(CF3)2), reference compound] | – | – | 1.5 nM and 2 nM | – | – | 10 nM and 14 nM | – | –
5 | CC(C)C[C@H](NC(=O)[C@@H]1CCCN1C(=O)[C@H](CC(N)=O)NC(=O)[C@H](Cc1ccccc1)NC(=O)CNC(=O)[C@@H](C)NC(=O)[C@@H](N)Cc1ccc(O)cc1)C(=O)N[C@@H](Cc1c[nH]c2ccccc12)C(=O)NCc1cc(C(F)(F)F)cc(C(F)(F)F)c1 [AKG104] | – | −6.93 ± 0.05 | – | – | 37.2 nM | 20 nM | 3/1 | Ki (DOR [3]): 17 nM
6 | CC(C)C[C@H](NC(=O)[C@@H]1CCCN1C(=O)[C@H](Cc1ccccc1)N(C)C(=O)[C@H](Cc1c[nH]c2ccccc12)N(C)C(=O)[C@@H]1CCCN1C(=O)[C@@H](N)Cc1ccc(O)cc1)C(=O)N[C@@H](Cc1c[nH]c2ccccc12)C(=O)NCc1cc(C(F)(F)F)cc(C(F)(F)F)c1 [AKG225, H-Tyr-Pro-NMeTrp-NMePhe-Pro-Leu-Trp-NH-Bn(3′,5′-(CF3)2)] (H-YP[NMeW][NMeF]PLW-{NH(3,5-(CF3)2-benzyl)}) | – | – | 14.8 ± 1.4 nM | 1/20 | – | 302 ± 78.5 nM | – | –
7 | CC(C)C[C@H](NC(=O)[C@@H]1CCCN1C(=O)[C@@H](CO)NC(=O)[C@H](Cc1ccccc1)NC(=O)CNC(=O)[C@@H](C)NC(=O)[C@@H](N)Cc1ccc(O)cc1)C(=O)N[C@@H](Cc1c[nH]c2ccccc12)C(=O)NCc1cc(C(F)(F)F)cc(C(F)(F)F)c1 [AKG101] | 200 nM | −6.35 ± 0.26 | 3 nM | 1/39 | 74.1 nM | 110 nM | 6/1 | IC50 (DOR [2]; [6]): 6.7 nM and 6.72 nM; Kb (NK1R; [7]): 28 ± 11.8 nM; GPI/LMMP (NK1R) Agonist (NK1R): None at 100 nM
8 | CC(C)C[C@H](NC(=O)[C@@H]1CCCN1C(=O)CNC(=O)[C@H](CCC(N)=O)NC(=O)[C@H](Cc1ccccc1)N(C)C(=O)CNC(=O)[C@@H](C)NC(=O)[C@@H](N)Cc1ccc(O)cc1)C(=O)N[C@@H](Cc1c[nH]c2ccccc12)C(=O)NCc1cc(C(F)(F)F)cc(C(F)(F)F)c1 [AKG-SK-145] (H-Y[dA]G[NMeF]QGPLW-{NH(3,5-(CF3)2-benzyl)}) | 2 nM | −8.43 ± 0.08 | 7.5 nM | 1/16 | 14.5 nM | 120 nM and 125 nM | 1/3 | Ki (DOR [3]): 6 nM
9 | CC(C)C[C@H](NC(=O)[C@@H]1CCCN1C(=O)[C@H](CO)NC(=O)[C@H](Cc1ccccc1)N(C)C(=O)CNC(=O)[C@@H](C)NC(=O)[C@@H](N)Cc1ccc(O)cc1)C(=O)N[C@@H](Cc1c[nH]c2ccccc12)C(=O)NCc1cc(C(F)(F)F)cc(C(F)(F)F)c1 [AKG126] (H-Y[dA]G[NMeF]SPLW-{NH(3,5-(CF3)2-benzyl)}) | 2 nM | −8.30 ± 0.11 | 1 nM | 1/37 | 148 nM | – | 1/31 | binding selectivity for MOR over DOR (MOR [1]): 31 times; higher agonist activity at DOR compared to MOR (functional assays) (DOR [2]): 9 times; IC50 (DOR [2]; [6]): 25.9 ± 6.69 nM; Kb (NK1R; [7]): 17 nM and 16.5 nM; GPI/LMMP (NK1R) Agonist (NK1R): None at 30 nM; GPI/MVD IC50 ratio (MOR [4]): 9/1; IC50 (MOR [4]; [5]): 240 nM; IC50 (MOR [4]; head of Table IX, read-out: GPI (MOR) ID50): 237 ± 29.2 nM
10 | CC(C)C[C@H](NC(=O)[C@@H]1CCCN1C(=O)[C@H](Cc1ccccc1)N(C)C(=O)[C@H](Cc1c[nH]c2ccccc12)NC(=O)[C@@H]1CCCN1C(=O)[C@@H](N)Cc1ccc(O)cc1)C(=O)N[C@@H](Cc1c[nH]c2ccccc12)C(=O)NCc1cc(C(F)(F)F)cc(C(F)(F)F)c1 [AKG223, H-Tyr-Pro-Trp-NMePhe-Pro-Leu-Trp-NH-Bn(3′,5′-(CF3)2)] (H-YPW[NMeF]PLW-{NH(3,5-(CF3)2-benzyl)}) | – | – | 3.59 ± 0.3 nM | – | – | 10.1 ± 6.3 nM | – | –
11 | CC(C)C[C@H](NC(=O)[C@@H]1CCCN1C(=O)[C@H](Cc1ccccc1)NC(=O)[C@H](Cc1c[nH]c2ccccc12)NC(=O)[C@@H]1CCCN1C(=O)[C@@H](N)Cc1ccc(O)cc1)C(=O)N[C@@H](Cc1c[nH]c2ccccc12)C(=O)NCc1cc(C(F)(F)F)cc(C(F)(F)F)c1 [AKG221, H-Tyr-Pro-Trp-Phe-Pro-Leu-Trp-NH-Bn(3′,5′-(CF3)2)] (H-YPWFPLW-{NH(3,5-(CF3)2-benzyl)}) | – | – | 3.34 ± 0.32 nM | – | – | 38.5 ± 3.6 nM | – | –
12 | CC(C)C[C@H](NC(=O)[C@@H]1CCCN1C(=O)[C@H](Cc1ccccc1)NC(=O)CNC(=O)[C@@H](C)NC(=O)[C@@H](N)Cc1ccc(O)cc1)C(=O)N[C@@H](Cc1c[nH]c2ccccc12)C(=O)NCc1cc(C(F)(F)F)cc(C(F)(F)F)c1 [TY012, reference compound] | – | −7.7 ± 0.21 | – | – | – | – | – | Ki (hNK1; read-out: Ki^hNK1): 0.61 nM; Ki (rNK1; read-out: Ki^rNK1): 33 nM
13 | CC(C)C[C@H](NC(=O)[C@@H]1CCCN1C(=O)[C@H](CCC(N)=O)NC(=O)[C@H](Cc1ccccc1)NC(=O)CNC(=O)[C@@H](C)NC(=O)[C@@H](N)Cc1ccc(O)cc1)C(=O)N[C@@H](Cc1c[nH]c2ccccc12)C(=O)NCc1cc(C(F)(F)F)cc(C(F)(F)F)c1 [AKG105] | – | −7.06 ± 0.18 | 1 nM | – | 20.4 nM | 12 nM | – | Ki (DOR [3]): 9 nM
14 | CC(C)C[C@H](NC(=O)[C@@H]1CCCN1C(=O)CCCCCNC(=O)[C@H](Cc1ccccc1)N(C)C(=O)CNC(=O)[C@@H](C)NC(=O)[C@@H](N)Cc1ccc(O)cc1)C(=O)N[C@@H](Cc1c[nH]c2ccccc12)C(=O)NCc1cc(C(F)(F)F)cc(C(F)(F)F)c1 [AKG124, H-Tyr-D-Ala-Gly-NMePhe-[4]6-Ahx-Pro-Leu-Trp-NH-Bn(3′,5′-(CF3)2)] | 7 nM | −7.80 ± 0.09 | – | 1/36 | 72.4 nM | – | – | IC50 (DOR [2]): 36.8 ± 13.6 nM; Kb (NK1R): 11.2 ± 3.1 nM; GPI/LMMP (NK1R) Agonist (NK1R): None at 100 nM; GPI/MVD IC50 ratio (MOR [4]): 7/1; IC50 (MOR [4]; [5]): 255 ± 71.2 nM
